Holding throughout (experiment): inhibition of tumour cell growth, NCI panel, 48 h
Assay [1] concerns SNB-19 CNS.
Assay [2] relates to MDA-MB-435.
For assay [3], the system named is LOX IMVI melanoma.
For assay [4], the system named is SN12C renal.
The subject of assay [5] is IGROV1 ovarian.
Assay [6] relates to HS 578T breast.
For assay [7], the system named is UACC-62 melanoma.
Assay [8] deals with SF-268 CNS.
For assay [9], the system named is T-47D breast.
The subject of assay [10] is SR leukemia.

Values joined by “and” are separate entries in the source; they are usually repeats but may differ in a detail not shown here. Identical values can stand only once.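 Five concentrations, 48 hours, 96-well plates. Abbreviation: GI50, concentration required for 50% inhibition of growth. TGI marks complete inhibition of growth.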

For the compound `Nc1nc(N)c2nc(CNc3ccc(C(=O)NC(CC(=O)O)C(=O)O)cc3)cnc2n1` (configuration not stated), the GI50 is 8.39 µM in [1]; 0.465 µM in [2]; 0.16 µM in assay [3]; 0.922 µM in [4]; 0.631 µM in assay [5]; 59.2 µM in [6]. For the same compound, the GI50 in assay [7] is 3.09 µM; in assay [8] it was 0.528 µM; in assay [9] it was greater than 65.6 µM; in assay [10] it was 0.267 µM. Further, the TGI in assay [1], in assay [2], in [3], in assay [4], in assay [5] and in assay [6] was greater than 100 µM in each case. For the same compound, the TGI in assay [7], in [8], in assay [9] and in assay [10] was greater than 100 µM each time.
On to `O=C(Nc1cccc(-n2cc(-c3ccncc3)c(-c3ccc(Cl)c(O)c3)n2)c1)c1ccc(N2CCOCC2)c(C(F)(F)F)c1`, for which the GI50 in [1] is 4.11 µM; in [2], 2.04 µM; in assay [3] it was 1.64 µM; in [4], 22 µM; in [5] it was 9.42 µM; in assay [6] it was 1.85 µM. The GI50 was 3.26 µM in assay [7], 5.58 µM in assay [8], 35.9 µM in assay [9] and 1.63 µM in assay [10]. Further, the TGI in assay [1] was greater than 50 µM; in assay [2], greater than 50 µM; in assay [3], 7.29 µM; in assay [4], greater than 50 µM; in assay [5] it was greater than 50 µM; in [6], greater than 50 µM. Also, the TGI in assay [7] is 18.4 µM; in [8], greater than 50 µM; in assay [9] it was greater than 50 µM; in assay [10] it was greater than 50 µM.
With `CC1(N)CCN(c2cccnc2NC(=O)c2nc(-c3ncccc3C(F)(F)F)cnc2N)CC1`, the GI50 in [1] was 50 µM; in assay [2], 41.6 µM; in assay [3], 21.5 µM; in assay [4] it was 16.2 µM; in [5], 3.67 µM; in assay [6], 38.5 µM. Also, the GI50 is 61.2 µM in [7], 31.5 µM in assay [8], 17.5 µM in assay [9] and 3.3 µM in [10]. For the same compound, the TGI was greater than 100 µM in assay [1]; greater than 100 µM in assay [2]; 53.4 µM in assay [3]; greater than 100 µM in assay [4]; greater than 100 µM in [5]; greater than 100 µM in [6]. The TGI in assay [7] was greater than 100 µM; in assay [8] it was greater than 100 µM; in [9] it was 48.3 µM; in assay [10], 35.5 µM.
Regarding `NC(=O)c1ccc(I)c(N=O)c1`, the GI50 in assay [1] is greater than 100 µM; in assay [2] it was 29.6 µM; in assay [3], 16.7 µM; in [4], 55.8 µM; in assay [5] it was 26.7 µM; in [6] it was 38.5 µM. Besides, the GI50 in assay [7] was 40.5 µM; in [8], 62.1 µM; in assay [9], 32.3 µM; in assay [10] it was 40.6 µM. The TGI in [1] is greater than 100 µM; in assay [2], 89.5 µM; in assay [3], 31.8 µM; in [4], greater than 100 µM; in assay [5] it was 86.4 µM; in assay [6], greater than 100 µM. The TGI is greater than 100 µM in assay [7], greater than 100 µM in [8], 87.8 µM in assay [9] and greater than 100 µM in assay [10].
As for `COc1cc2ccccc2oc1=O`, the TGI in assay [1], in [2], in [3], in assay [4], in assay [5] and in assay [6] was greater than 100 µM each time. For the same compound, the TGI in assay [7], in assay [8], in [9] and in assay [10] was greater than 100 µM each time.
As to `COc1c(O)cc2oc(-c3ccc(O)cc3)cc(=O)c2c1O`, the TGI was greater than 100 µM in [1]; greater than 100 µM in [2]; greater than 100 µM in [3]; greater than 100 µM in [4]; 76.9 µM in assay [5]; 73.8 µM in assay [6]. Also, the TGI in assay [7] is 68.1 µM; in assay [8], greater than 100 µM; in assay [9] it was greater than 100 µM; in [10] it was 63.6 µM.
As to `O=c1ccn(C2CC(O)C(CO)O2)c(=O)[nH]1` (configuration not stated), the GI50 in assay [1], in assay [2], in assay [3], in [4], in [5] and in [6] was greater than 5000 µM throughout. The GI50 in assay [7], in assay [8], in [9] and in [10] was greater than 5000 µM in each case. The TGI in assay [1], in assay [2], in assay [3], in assay [4], in assay [5] and in [6] was greater than 5000 µM throughout. Besides, the TGI in assay [7], in assay [8], in assay [9] and in assay [10] was greater than 5000 µM each time.
For `CC(=O)OC[C@]12CC[C@@H](C(=O)CBr)[C@@H]1[C@H]1CC[C@@H]3[C@@]4(C)CCCNC(C)(C)[C@@H]4CC[C@@]3(C)[C@]1(C)CC2`, the GI50 was 11.5 µM in [1]; 3.81 µM in [2]; 1.76 µM in assay [3]; 2.28 µM in assay [4]; 1.83 µM in assay [5]; 15.9 µM in assay [6]. In addition, the GI50 is 2.11 µM in assay [7], 5.98 µM in [8], 2.31 µM in [9] and 2 µM in assay [10]. The TGI is 25.2 µM in [1]; 13.8 µM in assay [2]; 3.31 µM in assay [3]; 5.25 µM in [4]; 3.76 µM in assay [5]; greater than 100 µM in assay [6]. Moreover, the TGI in [7] is 4.71 µM; in [8] it was 23.9 µM; in assay [9] it was 6.92 µM; in [10], 5.71 µM.
For `O=C(O)c1cc2ccc3ccccc3c2oc1=O`, the TGI in assay [1], in assay [2], in assay [3], in [4], in assay [5] and in [6] was greater than 100 µM each time. Besides, the TGI in assay [7], in assay [8], in assay [9] and in assay [10] was greater than 100 µM in each case.
Take `COc1ccc2c(c1)nnn1c3ncccc3c(N=O)c21`: the GI50 was 6.28 µM and 11.8 µM in [1]; 1.94 µM and 2.05 µM in assay [2]; 0.799 µM and 0.552 µM in assay [3]; 1.4 µM and 2.06 µM in assay [4]; 0.114 µM and 1.09 µM in assay [5]; 1.17 µM and 11.5 µM in assay [6]. Besides, the GI50 in assay [7] is 0.853 µM and 2.56 µM; in assay [8], 0.465 µM and 1.73 µM; in assay [9] it was 0.162 µM and 0.515 µM; in assay [10], 0.00899 µM and 0.0247 µM. The TGI in assay [1] was 16.2 µM and 34.2 µM; in assay [2], 9.7 µM and 12.4 µM; in assay [3], 7.06 µM and 2.56 µM; in assay [4], 8.1 µM and 9.82 µM; in assay [7] it was 7.81 µM and 13.9 µM; in assay [8], 3.56 µM and 8.25 µM. The TGI in assay [9] is 2.36 µM and 7.9 µM.
In the case of `CCCCC[C@H]1C/C=C2/C(=O)C=C[C@@H]2C/C=C\CCCC(=O)O[C@@H](CCCCC)C/C=C2/C(=O)C=C[C@@H]2C/C=C\CCCC(=O)O1`, the GI50 in [1] was 0.318 µM; in assay [2], 0.0959 µM; in assay [3], 0.0695 µM; in [4], 0.105 µM; in assay [5], 0.123 µM; in assay [6] it was 1.28 µM. For the same compound, the GI50 in [7] is 0.253 µM; in assay [8], 0.442 µM; in assay [9], 0.236 µM; in [10], 0.0825 µM. For the same compound, the TGI in assay [1] worked out at 0.809 µM; in [2], 0.412 µM; in assay [3], 0.217 µM; in assay [4] it was 0.796 µM; in assay [5], 0.596 µM; in [6], 10.1 µM. The TGI came to 0.783 µM in assay [7], 1.75 µM in assay [8], 0.819 µM in [9] and 0.52 µM in [10].
Consider `C=C1/C(=C\C=C2/CCC[C@]3(C)[C@@H]([C@H](C)CCCC(C)(C)O)CC[C@@H]23)C[C@@H](OC(=O)CBr)C[C@@H]1O`, for which the GI50 in assay [1] is 11.2 µM; in assay [2], 4.22 µM; in assay [3], 0.147 µM; in assay [4], 4.93 µM; in assay [5], 0.0604 µM; in assay [6] it was 1.79 µM. Also, the GI50 was 3.29 µM in assay [7], 2.26 µM in assay [8], 2.71 µM in assay [9] and 0.0902 µM in assay [10]. Moreover, the TGI is 24.9 µM in assay [1]; 10.9 µM in [2]; 0.304 µM in assay [3]; 11.9 µM in [4]; 0.15 µM in assay [5]; 8.12 µM in [6]. The TGI in [7] was 9.84 µM; in assay [8], 6.1 µM; in assay [9], 19.3 µM; in [10], 1.5 µM.
As to `COc1ccc(C2CC(C)(O)Oc3cc4c(cc32)OCO4)cc1` (configuration not stated), the TGI is greater than 100 µM in assay [1]; 42.9 µM in assay [2]; greater than 100 µM in assay [3]; greater than 100 µM in assay [4]; greater than 100 µM in assay [5]; 97.9 µM in assay [6]. In addition, the TGI in assay [7] was greater than 100 µM; in assay [8], greater than 100 µM; in assay [9] it was greater than 50.5 µM; in assay [10], greater than 78.9 µM.
In the case of `COc1cccc(-n2nc(C)c3c(N/N=C(\C)c4ccncc4)ncnc32)c1`, the GI50 in assay [1], in assay [2], in assay [3], in [4], in assay [5] and in assay [6] was greater than 25 µM throughout. Moreover, the GI50 is greater than 25 µM in assay [7], greater than 25 µM in [8], 6.6 µM in assay [9] and greater than 25 µM in assay [10]. Further, the TGI in assay [1], in assay [2], in assay [3], in assay [4], in assay [5] and in [6] was greater than 25 µM each time. The TGI in assay [7], in [8], in assay [9] and in assay [10] was greater than 25 µM throughout.
As for `COC(=O)[C@@]12OC[C@]34[C@H]([C@@H](O)[C@@H]1O)[C@@]1(C)[C@H](O)C(=O)C=C(C)[C@@H]1C[C@H]3OC(=O)C(OC(C)=O)[C@@H]24` (some centres not stated), the GI50 is 0.0232 µM in assay [1]; 0.0319 µM in [2]; 0.0152 µM in assay [3]; 0.046 µM in [4]; 0.0302 µM in [5]; 0.0193 µM in assay [6]. Also, the GI50 in assay [7] was 0.0245 µM; in [8], 0.0428 µM; in assay [9] it was 0.0362 µM; in assay [10], 0.0195 µM. For the same compound, the TGI in assay [1] was 0.299 µM; in [2] it was 0.148 µM; in [3], 0.0311 µM; in assay [4] it was 0.307 µM; in [5], 0.134 µM; in assay [6], 0.0523 µM. The TGI in assay [7] worked out at 0.142 µM; in assay [8], 0.231 µM; in assay [9], 0.3 µM; in assay [10], 0.0425 µM.
As for `CCN(Cc1ccc(F)cc1)c1ccc(CO)c(F)c1`, the GI50 in assay [1] was 27.3 µM; in [2], 22.8 µM; in assay [3] it was 13.9 µM; in assay [4], 19.5 µM; in assay [5] it was 1.26 µM; in assay [6] it was 17.2 µM. The GI50 in [7] was 1.62 µM; in assay [8] it was 24.8 µM; in assay [9], 1.35 µM; in assay [10] it was 15.1 µM. Moreover, the TGI was greater than 100 µM in assay [1]; greater than 72.4 µM in [2]; 31.2 µM in assay [3]; 99.1 µM in assay [4]; 5.03 µM in assay [5]; greater than 75.5 µM in assay [6]. The TGI was 7.42 µM in assay [7], greater than 92.3 µM in assay [8], 8.31 µM in assay [9] and 45.1 µM in assay [10].
